Values quoted from earlier work, collected in PubChem BioAssay AID1259409 (Chemical Carcinogenesis Research Information System (CCRIS), 2018).

Tested on: rodent chemically induced tumor inhibition, incidence and multiplicity
Experiment: CCRIS tumor inhibitor studies
Conditions: Carcinogen: DIETHYLNITROSAMINE, 55-18-5, N-METHYL-N-NITROSOUREA, 684-93-5, N-BUTYL-N-(4-HYDROXYBUTYL)NITROSAMINE, 3817-11-6, DIMETHY, Carcinogen: DIETHYLNITROSAMINE, 55-18-5, N-METHYL-N-NITROSOUREA, 684-93-5, N-BUTYL-N-(4-HYDROXYBUTYL)NITROSAMINE, 3817-11-6, DIMETHY, Dose [Inhibitor]: 0, Route [Inhibitor]: ORAL, Species: RAT, Strain/Sex: F344/MALE, Dose [Carcinogen]: 100 MG/KG BW DEN ONCE FOLLOWED BY 20 MG/KG BW MNU 4 TIMES AND 0.05% BBN IN DRINKING WATER DURING FIRST 2 WK THEN 40 MG/K, Promoter: NONE USED

## CCOC1=C(O)C(=O)O[C@@H]1[C@@H](O)CO
1% IN THE DIET FOR 24 WK BEGINNING 1 DAY POST CARCINOGEN TREATMENT (STUDY DURATION: 28 WK), Target Tissue: Type of Lesion: URINARY BLADDER: PAPILLOMA
  tumour outcome (control, treated, inhibition, significance): 7%, 7%, 0%, not significant
1% IN THE DIET FOR 30 D BEGINNING 1 DAY PRIOR TO CARCINOGEN TREATMENT (STUDY DURATION: 28 WK), Target Tissue: Type of Lesion: LARGE INTESTINE: ADENOMA
  tumour outcome (control, treated, inhibition, significance): 27%, 33%, -22%, not significant
1% IN THE DIET FOR 30 D BEGINNING 1 DAY PRIOR TO CARCINOGEN TREATMENT (STUDY DURATION: 28 WK), Target Tissue: Type of Lesion: LARGE INTESTINE: CARCINOMA
  tumour outcome (control, treated, inhibition, significance): 7%, 40%, -471%, not significant
1% IN THE DIET FOR 30 D BEGINNING 1 DAY PRIOR TO CARCINOGEN TREATMENT (STUDY DURATION: 28 WK), Target Tissue: Type of Lesion: SMALL INTESTINE: ADENOMA
  tumour outcome (control, treated, inhibition, significance): 33%, 7%, 79%, not significant
1% IN THE DIET FOR 30 D BEGINNING 1 DAY PRIOR TO CARCINOGEN TREATMENT (STUDY DURATION: 28 WK), Target Tissue: Type of Lesion: SMALL INTESTINE: CARCINOMA
  tumour outcome (control, treated, inhibition, significance): 7%, 7%, 0%, not significant
1% IN THE DIET FOR 30 D BEGINNING 1 DAY PRIOR TO CARCINOGEN TREATMENT (STUDY DURATION: 28 WK), Target Tissue: Type of Lesion: THYROID: CARCINOMA
  tumour outcome (control, treated, inhibition, significance): 7%, 0%, 100%, not significant
1% IN THE DIET FOR 30 DAYS BEGINNING 1 DAY PRIOR TO CARCINOGEN TREATMENT (STUDY DURATION: 28 WK), Target Tissue: Type of Lesion: URINARY BLADDER: CARCINOMA
  tumour outcome (control, treated, inhibition, significance): 7%, 7%, 0%, not significant
1% IN THE DRINKING WATER FOR 24 WK BEGINNING 1 DAY POST CARCINOGEN TREATMENT (STUDY DURATION: 28 WK), Target Tissue: Type of Lesion: SMALL INTESTINE: CARCINOMA
  tumour outcome (control, treated, inhibition, significance): 7%, 0%, 100%, not significant
